This note sets out measurements from ChEMBL document CHEMBL5724914, “Linking interpersonal differences in gut microbiota composition and drug biotransformation activity” (2024).

Data set [1] in a line: The drug is tested on Z-009 corresponding to pig gut metagenome with ENA study accession number: PRJEB37062 and ENA sample accession number: ERS12561809 for biotransformation under anaerobic condition. The drug concentrations were measured over 9 timepoints collected between 0 and 24 hours of incubation by liquid-chromatography-coupled mass spectrometry (LC–MS). To be noted: 2 µM.

Data set [2] in a line: The drug is tested on Z-028 corresponding to mouse gut metagenome with ENA study accession number: PRJEB37062 and ENA sample accession number: ERS12561827 for biotransformation under anaerobic condition. The drug concentrations were measured over 9 timepoints collected between 0 and 24 hours of incubation by liquid-chromatography-coupled mass spectrometry (LC–MS). The conditions noted are these: 2 µM.

For data set [3] the following is noted: human gut metagenome, 24 h, 2 µM.
The conditions of data set [4]: human gut metagenome, 24 h, 2 µM. This is another data set of the same source.
For data set [5] the following is noted: human gut metagenome, 24 h, 2 µM. The source holds these as a separate data set.
For data set [6] the following is noted: human gut metagenome, 24 h, 2 µM. The source holds these as a separate data set.
A short description of data set [7]: The drug is tested on WLS-240 corresponding to human gut metagenome with ENA study accession number: PRJEB37062 and ENA sample accession number: ERS12561773 for biotransformation under anaerobic condition. The drug concentrations were measured over 9 timepoints collected between 0 and 24 hours of incubation by liquid-chromatography-coupled mass spectrometry (LC–MS). To be noted: 2 µM.

The conditions of data set [8]: human gut metagenome, 24 h, 2 µM. The source holds these as a separate data set.
Data set [9] is described as follows: The drug is tested on Z-005 corresponding to metagenome with ENA study accession number: PRJEB37062 and ENA sample accession number: ERS12561805 for biotransformation under anaerobic condition. The drug concentrations were measured over 9 timepoints collected between 0 and 24 hours of incubation by liquid-chromatography-coupled mass spectrometry (LC–MS). The conditions noted are these: 2 µM.

Data set [10] in a line: The drug is tested on Z-004 corresponding to metagenome with ENA study accession number: PRJEB37062 and ENA sample accession number: ERS12561804 for biotransformation under anaerobic condition. The drug concentrations were measured over 9 timepoints collected between 0 and 24 hours of incubation by liquid-chromatography-coupled mass spectrometry (LC–MS). To be noted: 2 µM.

Data set [11] is described as follows: The drug is tested on Z-017 corresponding to mouse gut metagenome with ENA study accession number: PRJEB37062 and ENA sample accession number: ERS12561816 for biotransformation under anaerobic condition. The drug concentrations were measured over 9 timepoints collected between 0 and 24 hours of incubation by liquid-chromatography-coupled mass spectrometry (LC–MS). To be noted: 2 µM.

The conditions of data set [12]: human gut metagenome, 24 h, 2 µM. This is another data set of the same source.
A short description of data set [13]: The drug is tested on Z-007 corresponding to rat gut metagenome with ENA study accession number: PRJEB37062 and ENA sample accession number: ERS12561807 for biotransformation under anaerobic condition. The drug concentrations were measured over 9 timepoints collected between 0 and 24 hours of incubation by liquid-chromatography-coupled mass spectrometry (LC–MS). The conditions noted are these: 2 µM.

The conditions of data set [14]: human gut metagenome, 24 h, 2 µM. The source holds these as a separate data set.
For data set [15] the following is noted: human gut metagenome, 24 h, 2 µM. This is another data set of the same source.
Data set [16] can be described thus: The drug is tested on WLS-039 corresponding to human gut metagenome with ENA study accession number: PRJEB37062 and ENA sample accession number: ERS12561746 for biotransformation under anaerobic condition. The drug concentrations were measured over 9 timepoints collected between 0 and 24 hours of incubation by liquid-chromatography-coupled mass spectrometry (LC–MS). The conditions noted are these: 2 µM.

The nature of data set [17]: The drug is tested on Z-030 corresponding to mouse gut metagenome with ENA study accession number: PRJEB37062 and ENA sample accession number: ERS12561829 for biotransformation under anaerobic condition. The drug concentrations were measured over 9 timepoints collected between 0 and 24 hours of incubation by liquid-chromatography-coupled mass spectrometry (LC–MS). The conditions noted are these: 2 µM.

For data set [18] the following is noted: human gut metagenome, 24 h, 2 µM. The source holds these as a separate data set.
A short description of data set [19]: The drug is tested on Z-026 corresponding to metagenome with ENA study accession number: PRJEB37062 and ENA sample accession number: ERS12561825 for biotransformation under anaerobic condition. The drug concentrations were measured over 9 timepoints collected between 0 and 24 hours of incubation by liquid-chromatography-coupled mass spectrometry (LC–MS). To be noted: 2 µM.

Data set [20] is described as follows: The drug is tested on WLS-006 corresponding to human gut metagenome with ENA study accession number: PRJEB37062 and ENA sample accession number: ERS12561741 for biotransformation under anaerobic condition. The drug concentrations were measured over 9 timepoints collected between 0 and 24 hours of incubation by liquid-chromatography-coupled mass spectrometry (LC–MS). The conditions noted are these: 2 µM.

Each structure is given as a SMILES string.
Also: call rule not given here.

Turning to `COc1cc(NC(C)CCCN)c2ncccc2c1.O=P(O)(O)O.O=P(O)(O)O` (centres undefined) [PRIMAQUINE PHOSPHATE], the “Bacterial Biotransformation” value is recorded as “Compound NOT metabolized” in data set [1]; “Compound NOT metabolized” in data set [2]; “Compound metabolized” in data set [3]; “Compound NOT metabolized” in [4]; “Compound NOT metabolized” in data set [5]; “Compound NOT metabolized” in data set [6]. In addition, the “Bacterial Biotransformation” value in data set [7] is on record as “Compound metabolized”; in [8] it was “Compound metabolized”; in [9], “Compound NOT metabolized”; in data set [10], “Compound NOT metabolized”; in [11] it was “Compound NOT metabolized”; in data set [12], “Compound NOT metabolized”. Also, the “Bacterial Biotransformation” value is recorded as “Compound NOT metabolized” in [13]; “Compound NOT metabolized” in data set [14]; “Compound NOT metabolized” in [15]; “Compound metabolized” in data set [16]; “Compound NOT metabolized” in [17]; “Compound metabolized” in [18]. In data set [19], the “Bacterial Biotransformation” value is on record as “Compound NOT metabolized”.

`CC(=O)OCC(=O)NCCCOc1cccc(CN2CCCCC2)c1` [ROXATIDINE ACETATE]: the “Bacterial Biotransformation” value in data set [1], in data set [2], in data set [3], in data set [5], in data set [6] and in data set [7] was “Compound metabolized” throughout. The “Bacterial Biotransformation” value in [8], in [9], in [10], in data set [11], in [12] and in data set [13] was “Compound metabolized” in each case. Further, the “Bacterial Biotransformation” value in data set [14] is reported as “Compound metabolized”; in data set [15], “Compound metabolized”; in [16], “Compound metabolized”; in [17], “Compound NOT metabolized”; in data set [18], “Compound metabolized”; in [19] it was “Compound metabolized”.

Consider `COC1=C(OC)C(=O)C(CCCCCCCCCCO)=C(C)C1=O` [IDEBENONE], for which the “Bacterial Biotransformation” value in [1] is on record as “Compound metabolized”; in data set [2], “Compound metabolized”; in data set [3] it was “Compound metabolized”; in [4], “Compound metabolized”; in [9], “Compound metabolized”; in [10], “Compound NOT metabolized”. Also, the “Bacterial Biotransformation” value is recorded as “Compound NOT metabolized” in [11]; “Compound metabolized” in data set [12]; “Compound metabolized” in [13]; “Compound metabolized” in data set [14]; “Compound NOT metabolized” in data set [15]; “Compound metabolized” in data set [16]. The “Bacterial Biotransformation” value in data set [17] and in data set [19] was “Compound NOT metabolized” in each case.

As for `CC(=O)O[C@H]1C(=O)[C@@]2(C)[C@H]([C@H](OC(=O)c3ccccc3)[C@]3(O)C[C@H](OC(=O)[C@H](O)[C@@H](NC(=O)c4ccccc4)c4ccccc4)C(C)=C1C3(C)C)[C@]1(OC(C)=O)CO[C@@H]1C[C@@H]2O` [PACLITAXEL], the “Bacterial Biotransformation” value is given as “Compound metabolized” in [1]; “Compound metabolized” in data set [2]; “Compound NOT metabolized” in [4]; “Compound NOT metabolized” in [5]; “Compound metabolized” in data set [6]; “Compound NOT metabolized” in data set [7]. Besides, the “Bacterial Biotransformation” value in data set [8] is given as “Compound metabolized”; in data set [9], “Compound metabolized”; in [10], “Compound NOT metabolized”; in [11], “Compound NOT metabolized”; in data set [12] it was “Compound NOT metabolized”; in data set [13], “Compound NOT metabolized”. In addition, the “Bacterial Biotransformation” value is given as “Compound NOT metabolized” in data set [14]; “Compound NOT metabolized” in data set [15]; “Compound metabolized” in [16]; “Compound NOT metabolized” in [17]; “Compound metabolized” in [20]; “Compound metabolized” in [18]. Further, the “Bacterial Biotransformation” value in [19] is reported as “Compound metabolized”.

Turning to `CC(C)C[C@H]1C(=O)N2CCC[C@H]2[C@]2(O)O[C@](NC(=O)[C@@H]3C=C4c5cccc6[nH]c(Br)c(c56)C[C@H]4N(C)C3)(C(C)C)C(=O)N12.CS(=O)(=O)O` [BROMOCRIPTINE MESYLATE], the “Bacterial Biotransformation” value is “Compound metabolized” in [1]; “Compound metabolized” in data set [2]; “Compound NOT metabolized” in data set [4]; “Compound metabolized” in data set [6]; “Compound NOT metabolized” in [7]; “Compound NOT metabolized” in [8]. In addition, the “Bacterial Biotransformation” value in [9], in data set [10], in data set [11], in [12], in [13] and in [14] was “Compound metabolized” each time. The “Bacterial Biotransformation” value in data set [16], in data set [17], in data set [20] and in [19] was “Compound metabolized” each time.

For the compound `Cc1ccc(NC(=O)c2ccc(CN3CCN(C)CC3)cc2)cc1Nc1nccc(-c2cccnc2)n1` [IMATINIB], the “Bacterial Biotransformation” value in [1], in data set [2], in data set [9], in data set [10], in [11] and in data set [13] was “Compound NOT metabolized” in each case. Besides, the “Bacterial Biotransformation” value in data set [17] and in data set [19] was “Compound NOT metabolized” throughout.
